Several values for one entry are separate records, joined by “and”; a condition that tells them apart may be missing. Equal values may be shown once.
Experiments:
[1] = target: HPK1 (Homo sapiens (Human), UniProt Q92918); test: HPK1 enzyme activity detection (1 mM ATP system), ADP-Glo with MBP substrate, Pharmacological Experiment 2; format: biochemical
Experimental: (§1) Pharmacological Experiment 2: […] The test compound was serially diluted using DMSO to 200 times the detection concentration. […] Centrifuge at 1000×g for 30 seconds and incubate at 25° C. for 15 minutes. • (5) Adding ATP and substrate: Add 2 μL of 2×ATP-MBP solution to the 384-well plate and centrifuge at 1000×g for 30 seconds. Seal the plate with a sealing film and incubate at 25° C. for 60 minutes. • (6) Add ADP-Glo reagent: Add 4 μL ADP-Glo reagent (Promega, V9103) to the 384-well plate, centrifuge at 1000×g for 30 seconds, and incubate at 25° C. for 60 minutes. • (7) Detection of luminescent signal; Add 8 μL of luminescent detection reagent (Promega, V9103) to a 384-well plate, centrifuge at 1000×g for 30 seconds, and incubate at 25° C. for 60 minutes. The chemiluminescent signal was read using a BMG instrument. • (8) Calculation of percentage inhibition rate: […] See Table 2 for the enzymatic IC 50 data of the example compounds on HPK1.

[2] = target: GLK (Homo sapiens (Human), UniProt Q8IVH8); test: GLK kinase assay (1 mM ATP system), ADP-Glo; format: biochemical
GLK, sequence (Q8IVH8 whole entry, species assumed): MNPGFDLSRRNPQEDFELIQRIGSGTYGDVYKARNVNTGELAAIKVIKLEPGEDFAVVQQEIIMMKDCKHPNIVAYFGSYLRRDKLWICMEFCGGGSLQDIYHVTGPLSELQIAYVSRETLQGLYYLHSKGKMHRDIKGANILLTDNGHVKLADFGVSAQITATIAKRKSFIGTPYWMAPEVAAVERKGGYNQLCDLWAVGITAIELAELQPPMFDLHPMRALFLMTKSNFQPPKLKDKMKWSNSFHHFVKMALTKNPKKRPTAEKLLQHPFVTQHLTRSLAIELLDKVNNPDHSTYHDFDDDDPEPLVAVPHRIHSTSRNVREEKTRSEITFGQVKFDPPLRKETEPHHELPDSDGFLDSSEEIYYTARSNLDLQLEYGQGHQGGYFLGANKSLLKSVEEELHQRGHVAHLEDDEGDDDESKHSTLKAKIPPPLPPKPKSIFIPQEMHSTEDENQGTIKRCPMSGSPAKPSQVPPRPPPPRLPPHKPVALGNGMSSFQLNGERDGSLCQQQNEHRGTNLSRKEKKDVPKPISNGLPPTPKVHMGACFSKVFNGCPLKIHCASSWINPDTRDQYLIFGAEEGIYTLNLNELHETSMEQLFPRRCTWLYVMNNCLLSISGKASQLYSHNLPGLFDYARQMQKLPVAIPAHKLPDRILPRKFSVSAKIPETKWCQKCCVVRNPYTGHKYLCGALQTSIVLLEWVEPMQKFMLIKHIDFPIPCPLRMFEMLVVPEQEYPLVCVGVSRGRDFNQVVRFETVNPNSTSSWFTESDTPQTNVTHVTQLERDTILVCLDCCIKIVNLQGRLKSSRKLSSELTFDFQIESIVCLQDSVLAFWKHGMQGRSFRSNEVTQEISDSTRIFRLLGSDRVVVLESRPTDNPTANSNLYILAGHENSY
Experimental: as §1, with “Solution” for “Pharmacological Experiment 2:”, “Add” for “Adding”, “signal:” for “signal;”, “microplate reader.” for “instrument.”, “GLK kinase IC50” for “enzymatic IC 50”

[3] = system: human peripheral blood mononuclear cells; test: Detection of IFN-γ secretion in human peripheral blood mononuclear cells (anti-CD3/CD28 beads, ELISA); format: cell-based; conditions: for Maximum induction factor: IFN-γ secretion, human PBMC; for EC3x: concentration for IFN-γ secretion of human PBMC to reach 3 times the baseline, 3 days
Experimental: Pharmacological Experiment 4: Detection of IFN-γ Secretion in Human Peripheral Blood Monocytes
• (1) Take human peripheral blood mononuclear cells frozen in liquid nitrogen, thaw in a 37° C. water bath, add 5 mL of preheated RPMI-1640 complete medium (containing 10% fetal bovine serum and penicillin/streptomycin), centrifuge at 500 g for 10 minutes, and discard the supernatant; • (2) Resuspend the cells in RPMI-1640 complete medium, adjust the density to 5×10^6 cells/mL, inoculate in a low-adhesion 6-well plate (Corning, 3471), and culture at 37° C. for 2 days; • (3) Collect cultured human peripheral blood mononuclear cells, centrifuge at 500 g for 10 min, and discard the supernatant; • (4) Resuspend the cells in RPMI-1640 complete medium, adjust the density to 1×10^6 cells/mL, and inoculate them in a round-bottom 96-well plate (Jet Biofil, TCP-002-096), with 100 μL per well; • (5) Add 50 μL of the test compound to each well and incubate at 37° C. for 30 min; • (6) Take human anti-CD3/CD28 magnetic beads (Miltenyi, 130-091-441), wash once with RPMI-1640 complete medium, and adjust the density to 0.5×106 beads/mL for later use; • (7) After the compound incubation, 50 μL of anti-human CD3/CD28 magnetic beads were added to each well and cultured at 37° C. for 3 days, • (8) The cell culture supernatant was obtained and the IFN-γ secretion was detected using the Human IFN-gamma DuoSet ELISA kit (R&D, DY285B-05); • (9) The log value of concentration was used as the X-axis and the IFN-γ secretion amount was used as the Y-axis. The “log (agonist) vs. response−variable slope” equation of the analysis software GraphPad Prism 7 was used to fit the dose-effect curve, thereby obtaining the EC3x value and the maximum induction factor of the compound for the secretion of IFN-γ from human peripheral blood mononuclear cells to reach 3 times the baseline.

HPK1, sequence (Q92918 whole entry, species assumed): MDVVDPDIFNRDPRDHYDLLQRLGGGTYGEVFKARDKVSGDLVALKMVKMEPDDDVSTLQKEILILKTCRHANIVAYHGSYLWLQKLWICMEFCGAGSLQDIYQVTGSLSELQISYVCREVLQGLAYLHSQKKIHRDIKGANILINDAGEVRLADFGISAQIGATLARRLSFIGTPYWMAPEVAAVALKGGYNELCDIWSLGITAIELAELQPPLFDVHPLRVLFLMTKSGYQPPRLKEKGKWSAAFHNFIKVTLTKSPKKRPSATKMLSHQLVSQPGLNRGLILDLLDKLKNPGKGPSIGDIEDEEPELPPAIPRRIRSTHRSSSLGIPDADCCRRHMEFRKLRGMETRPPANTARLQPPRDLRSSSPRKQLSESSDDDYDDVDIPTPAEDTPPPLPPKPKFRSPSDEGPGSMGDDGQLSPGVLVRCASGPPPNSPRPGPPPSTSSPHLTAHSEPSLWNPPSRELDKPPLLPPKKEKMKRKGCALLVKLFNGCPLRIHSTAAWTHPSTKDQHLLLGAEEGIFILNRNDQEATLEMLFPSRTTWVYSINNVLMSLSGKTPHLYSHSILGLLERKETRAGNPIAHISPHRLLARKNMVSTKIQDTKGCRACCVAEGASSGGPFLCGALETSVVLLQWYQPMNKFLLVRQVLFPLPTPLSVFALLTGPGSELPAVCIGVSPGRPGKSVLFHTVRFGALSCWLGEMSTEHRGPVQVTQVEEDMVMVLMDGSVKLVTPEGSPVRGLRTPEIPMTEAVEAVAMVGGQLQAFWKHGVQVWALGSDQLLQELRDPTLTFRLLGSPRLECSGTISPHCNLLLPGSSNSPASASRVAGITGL

Compound | IC50 [1] | IC50 [2] | Maximum induction factor [3] | EC3x [3]
4-(7-FLUOROIMIDAZO[1,2-A]PYRIDIN-3-YL)-7-((2,3,5,6,7′,8′-HEXAHYDRO-6′H-SPIRO[PYRAN-4,5′-[1,7]NAPHTHYRIDINE]-2′-YL)AMINO)ISOINDOL-1-ONE [Compound 87] | 0.00512 µM | 0.724 µM | 11.2 | 193 nM
4-(7-FLUOROIMIDAZO[1,2-A]PYRIDIN-3-YL)-7-((7′-METHYL-2,3,5,6,7′,8′-HEXAHYDRO-6′-SPIRO[PYRAN-4,5′-[1,7]NAPHTHYRIDINE]-2′-YL)AMINO)ISOINDOL-1-ONE [Compound 50] | 0.00339 µM | 1.23 µM | 4.8 | 181 nM
CN(C)C1COC2(CCOCC2)c2ccc(Nc3ccc(-c4cnc5cc(F)ccn45)c4c3C(=O)NC4)nc21 (stereo not drawn) [Compound 49, 7-((8′-(DIMETHYLAMINO)-2,3,5,6,7′,8′-HEXAHYDROSPIRO[PYRAN-4,5′-PYRAN[4,3-B]PYRIDINE]-2′-YL)AMINO)-4-(7-FLUOROIMIDAZOLE[1,2-A]PYRIDIN-3-YL)ISOINDOL-1-ONE] | 0.00444 µM | 0.338 µM | 10.7 and 5.7 | 152 nM and 294 nM
CN(C)C1CC2(CCOC2)c2ccc(Nc3ccc(-c4cnc5cc(F)ccn45)c4c3C(=O)NC4)nc21 (stereo not drawn) [Compound 58, 7-((7-(DIMETHYLAMINO)-4′,5′,6,7-TETRAHYDRO-2′H-SPIRO[CYCLOPENTANE[B]PYRIDINE-5,3′-FURAN]-2-YL)AMINO)-4-(7-FLUOROIMIDAZO[1,2-A]PYRIDIN-3-YL)ISOINDOL-1-ONE] | 0.00525 µM | 1.48 µM | 6.5 | 352 nM
O=C1NCc2c(-c3cnc4cc(F)ccn34)ccc(Nc3ccc4c(n3)C(NC3CC3)CC43CCOCC3)c21 (stereo not drawn) [Compound 62, 7-((7-(CYCLOPROPYLAMINO)-2′,3′,5′,6,6′,7-HEXAHYDROSPIRO[CYCLOPENTYL[B]PYRIDINE-5,4′-PYRAN]-2-YL)AMINO)-4-(7-FLUOROIMIDAZOLE[1,2-A]PYRIDIN-3-YL)ISOINDOL-1-ONE] | 0.0102 µM | > 30 µM | 4.9 | 241 nM
O=C1NCc2c(-c3cnc4cc(F)ccn34)ccc(Nc3ccc4c(n3)C(NCC(F)F)CC43CCOCC3)c21 (stereo not drawn) [Compound 105] | 0.00526 µM |  | 14.1 | 58 nM
O=C1NCc2c(-c3cnc4cc(F)ccn34)ccc(Nc3ccc4c(n3)C(N3C5CCC3COC5)CC43CCOCC3)c21 (stereo not drawn) [Compound 115] | 0.00715 µM |  | 9.6 | 225 nM
O=C1NCc2c(-c3cnc4n3CCOC4)ccc(Nc3ccc4c(n3)CNCC43CCOCC3)c21 [Compound 153] | 0.0345 µM | 2.17 µM |  | 
O=C1NCc2c(-c3cnn4c3CCCC4)ccc(Nc3ccc4c(n3)CNCC43CCOCC3)c21 [Compound 154] | 0.0109 µM | 0.646 µM |  | 
CN(C)C1CC2(CCOCC2)c2ccc(Nc3ccc(-c4cnc5cc(C#N)ccn45)c4c3C(=O)NC4)nc21 (stereo not drawn) [Compound 157, 3-(7-((7-(DIMETHYLAMINO)-2′,3′,5′,6,6′,7-HEXAHYDROSPIRO]CYCLOPENTANE[B]PYRIDINE-5,4′-PYRAN]-2-YL)AMINO)-1-OXOISOINDOL-4-YL)IMIDAZO[1,2-A]PYRIDINE-7-CARBONITRILE] | 0.0059 µM | 0.877 µM |  | 
CN(C)C1CC2(CCOCC2)c2ccc(Nc3ccc(-c4cnc5cc(C(F)F)ccn45)c4c3C(=O)NC4)nc21 (stereo not drawn) [Compound 160, 4-(7-(DIFLUOROMETHYL)IMIDAZO[1,2-A]PYRIDIN-3-YL)-7-((7-(METHYLAMINO)-2′,3′,5′,6,6′,7-HEXAHYDRO SPIRO[CYCLOPENTANE[B]PYRIDINE-5,4′-PYRAN]-2-YL)AMINO)ISOINDOL-1-ONE] | 0.00657 µM | 0.46 µM |  | 
CN(C)C1CC2(CCOCC2)c2ccc(Nc3ccc(-c4cnc5n4CCOC5)c4c3C(=O)NC4)nc21 (stereo not drawn) [Compound 165, 4-(5,6-DIHYDRO-8H-IMIDAZO[2,1-C][1,4]OXAZIN-3-YL)-7-((7-(DIMETHYLAMINO)-2′,3′,5′,6,6′,7-HEXAHYDROSPIRO[CYCLOPENTA[B]PYRIDINE-5,4′-PYRAN]-2-YL)AMINO)ISOINDOL-1-ONE] | 0.0249 µM | 1.19 µM |  | 
O=C1NCc2c(-c3cnc4n3CCCC4)ccc(Nc3ccc4c(n3)CCCC43CCOCC3)c21 [Compound 167] | 0.0253 µM | 1.37 µM |  | 
N#Cc1ccn2c(-c3ccc(Nc4ccc5c(n4)C(N4CCCC4)CC54CCOCC4)c4c3CNC4=O)cnc2c1 (stereo not drawn) [Compound 168, 3-(1-OXO-7-((7-(PYRROLIDIN-1-YL)-2′,3′,5′,6,6′,7-HEXAHYDROSPIRO[CYCLOPENTA[B]PYRIDINE-5,4′-PYRAN]-2-YL)AMINO)ISOINDOL-4-YL)IMIDAZO[1,2-A]PYRIDINE-7-CARBONITRILE] | 0.00527 µM | 0.289 µM |  | 
O=C1NCc2c(-c3cnc4cc(OC(F)F)ccn34)ccc(Nc3ccc4c(n3)C(N3CCCC3)CC43CCOCC3)c21 (stereo not drawn) [Compound 169, 4-(7-(DIFLUOROMETHOXY)IMIDAZO[1,2-A]PYRIDIN-3-YL)-7-((7-(PYRROLIDIN-1-YL)-2′,3′,5′,6,6′,7-HEXAHYDROSPIRO[CYCLOPENTA[B]PYRIDINE-5,4′-PYRAN]-2-YL)AMINO)ISOINDOL-1-ONE] | 0.00919 µM | 0.223 µM |  | 
CN(C)C1CC2(CCOC2)c2ccc(Nc3ccc(-c4cnc5cc(OC(F)F)ccn45)c4c3C(=O)NC4)nc21 (stereo not drawn) [Compound 172, 4-(7-(DIFLUOROMETHOXY)IMIDAZO[1,2-A]PYRIDIN-3-YL)-7-((7-(METHYLAMINO)-4′,5′,6,7-TETRAHYDRO-2′-H-PYRIDO[CYCLOPENTYL[B]PYRIDINE-5,3′-FURAN]-2-YL)AMINO)ISOINDOLIN-1-ONE] | 0.0138 µM | 1.12 µM |  | 
CN(C)C1COC2(CCC2)c2ccc(Nc3ccc(-c4cnc5cc(F)ccn45)c4c3C(=O)NC4)nc21 (stereo not drawn) [Compound 173] | 0.00847 µM | 3.2 µM |  | 
CN(C)C1CC2(CCOCC2)c2ccc(Nc3ccc(-c4cnc5cc(N)ccn45)c4c3C(=O)NC4)nc21 (stereo not drawn) [Compound 174, 4-(7-AMINOIMIDAZO[1,2-A]PYRIDIN-3-YL)-7-((7-(DIMETHYLAMINO)-2′,3′,5′,6,6′,7-HEXAHYDROSPIRO[CY CLOPENTADIENYL[B]PYRIDINE-54′-PYRAN]-2-YL)AMINO)ISOINDOL-1-ONE] | 0.0192 µM | 0.566 µM |  | 
O=C1NCc2c(-c3cnc4cc(OC(F)F)ccn34)ccc(Nc3ccc4c(n3)C(NC3CC3)CC43CCOCC3)c21 (stereo not drawn) [Compound 178, 7-((7-(CYCLOPROPYLAMINO)-2′,3′,5′,6,6′,7-HEXAHYDROSPIRO[CYCLOPENTADIENYL[B]PYRIDINE-54′-PYRAN]-2-YL)AMINO)-4-(7-(DIFLUOROMETHOXY)IMIDAZO[1,2-A]PYRIDIN-3-YL)ISOINDOLIN-1-ONE] | 0.0137 µM | 1.24 µM |  | 
CC(C)NC1CC2(CCOCC2)c2ccc(Nc3ccc(-c4cnc5cc(OC(F)F)ccn45)c4c3C(=O)NC4)nc21 (stereo not drawn) [Compound 179] | 0.00885 µM | 0.971 µM |  | 
COc1ccn2c(-c3ccc(Nc4ccc5c(n4)C(N(C)C)CC54CCOC4)c4c3CNC4=O)cnc2c1 (stereo not drawn) [Compound 180, 7-((7-(DIMETHYLAMINO)-4′,5′,6,7-TETRAHYDRO-2′H-SPIRO[CYCLOPENTADIENYL[B]PYRIDINE-5,3′-FURAN]-2-YL)AMINO)-4-(7-METHOXYIMIDAZO[1,2-A]PYRIDIN-3-YL)ISOINDOLIN-1-ONE] | 0.0139 µM | 3.91 µM |  | 

Reference: US20250361241A1, “HPK1 INHIBITOR AND MEDICAL USE THEREOF” (Betta Pharmaceuticals Co., Ltd., priority 2022, published 2025)
